{
  "source": "patent EP4737452A1",
  "about": "“NOVEL PYRIMIDINE DERIVATIVES” (Aigen Sciences Inc., priority 2023, dated 2025)",
  "key": {"MDA-MB-436 cells": {"tested_on": "MDA-MB-436 cells", "assay": "BRCA1 synthetic lethality assay, colony formation with crystal violet staining, BRCA1 mutant cells", "type": "cell-based", "conditions": "cultured for 21 days", "protocol": "(§1) In this experimental example, whether the compound according to the present invention had synthetic lethal efficacy with BRCA1 activity was tested by examining the colony formation of tumor cells. MDA-MB-436 cells (ATCC, #HTB-130), a triple-negative breast cancer cell line with reduced BRCA1 activity due to BRCA1 mutation, and MCF-10A cell line (ATCC, #CRL-10317), which has wild-type BRCA1/2 genes and is used as a model of normal breast cells, were cultured in their respective culture media (MDA-MB-436: L-15 +10 […] + 10% fetal bovine serum (FBS), MCF-10A: MEGM + 100 ng/mL cholera toxin), and then seeded in 6-well plates at a concentration of 10,000 cells per well for the MDA-MB-436 cells and 120 cells per well for the MCF-10A cell line. […] The crystal violet stained in the cells was extracted by treating the cells with 500 µL of 10% acetic acid for 20 minutes at room temperature for quantitative analysis. 150 µL of the extracted crystal violet was placed in two wells of a 96-well plate, and the absorbance was measured at 565 nm. The absorbance was quantified relative to the absorbance value of a blank sample containing only DMSO but not the compound of the present invention."}, "MDA-MB-436": {"tested_on": "MDA-MB-436", "assay": "Cell survival analysis (CellTiter-Glo, 10 days culture)", "type": "cell-based", "conditions": "Homo sapiens, 240 h; MDA-MB-436 cell line, cultured for 10 days, CellTiter-Glo; read-out: Cell growth IC50 grade", "protocol": "In this experimental example, the cell growth inhibitory effect of compounds according to the present invention and positive control compounds in tumor cell lines was examined.\nMDA-MB-436 (ATCC, #HTB-130) cell line was cultured in cell culture medium (Leibovitz's L-15 (GIBCO catalog no. 11415064) + 10 µg/mL insulin (Yeasen catalog no. 40112ES25) + 16 µg/mL glutathione (GIBCO catalog no. 25030-081) + 10% fetal bovine serum (FBS) (Excell Bio catalog no. FSP500)). 3,000 MDA-MB-436 cells were plated per well in a 96-well plate and cultured for 1 day at 37°C in 5% CO2. […] The cells were then cultured in a cell incubator for 10 days, and the cell culture medium containing the compound was replaced on the 5th day of culture. Cell survival rate was analyzed for luminescence using the Promega CellTiter-Glo Luminescent Cell Viability Assay Kit (Promega catalog number G7573), and the luminescence was measured using a PerkinElmer EnVision instrument. The percentage of cell growth inhibition rate was calculated from the measured relative luminescence unit (RLU) as follows. Inhibition rate = 1−((RLU compound−RLU blank)/(RLU control−RLU blank)) × 100 [formula]"}, "USP1 enzyme": {"target": "USP1 enzyme (Homo sapiens, UniProt O94782)", "sequence (O94782 whole entry)": "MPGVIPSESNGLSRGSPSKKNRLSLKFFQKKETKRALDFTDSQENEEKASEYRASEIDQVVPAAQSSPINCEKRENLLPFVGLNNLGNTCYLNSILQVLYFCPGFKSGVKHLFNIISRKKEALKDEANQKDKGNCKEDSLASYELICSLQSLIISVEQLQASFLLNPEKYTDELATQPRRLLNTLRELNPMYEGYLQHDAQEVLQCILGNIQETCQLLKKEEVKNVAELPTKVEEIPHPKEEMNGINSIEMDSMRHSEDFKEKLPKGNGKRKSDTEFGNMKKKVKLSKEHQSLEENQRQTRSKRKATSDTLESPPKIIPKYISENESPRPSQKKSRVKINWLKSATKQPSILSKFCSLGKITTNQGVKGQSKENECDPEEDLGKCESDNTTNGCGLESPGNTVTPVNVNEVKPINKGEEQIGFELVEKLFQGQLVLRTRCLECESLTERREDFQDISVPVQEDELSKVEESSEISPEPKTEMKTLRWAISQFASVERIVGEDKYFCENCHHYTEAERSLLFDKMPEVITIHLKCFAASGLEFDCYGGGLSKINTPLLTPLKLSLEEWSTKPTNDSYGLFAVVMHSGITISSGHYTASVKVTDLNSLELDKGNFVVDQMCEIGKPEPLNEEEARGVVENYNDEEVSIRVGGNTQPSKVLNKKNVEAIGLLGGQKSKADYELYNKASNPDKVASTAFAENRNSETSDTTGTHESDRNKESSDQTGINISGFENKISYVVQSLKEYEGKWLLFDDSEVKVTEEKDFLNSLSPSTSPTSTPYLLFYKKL", "sequence (Q8TAF3 whole entry partner)": "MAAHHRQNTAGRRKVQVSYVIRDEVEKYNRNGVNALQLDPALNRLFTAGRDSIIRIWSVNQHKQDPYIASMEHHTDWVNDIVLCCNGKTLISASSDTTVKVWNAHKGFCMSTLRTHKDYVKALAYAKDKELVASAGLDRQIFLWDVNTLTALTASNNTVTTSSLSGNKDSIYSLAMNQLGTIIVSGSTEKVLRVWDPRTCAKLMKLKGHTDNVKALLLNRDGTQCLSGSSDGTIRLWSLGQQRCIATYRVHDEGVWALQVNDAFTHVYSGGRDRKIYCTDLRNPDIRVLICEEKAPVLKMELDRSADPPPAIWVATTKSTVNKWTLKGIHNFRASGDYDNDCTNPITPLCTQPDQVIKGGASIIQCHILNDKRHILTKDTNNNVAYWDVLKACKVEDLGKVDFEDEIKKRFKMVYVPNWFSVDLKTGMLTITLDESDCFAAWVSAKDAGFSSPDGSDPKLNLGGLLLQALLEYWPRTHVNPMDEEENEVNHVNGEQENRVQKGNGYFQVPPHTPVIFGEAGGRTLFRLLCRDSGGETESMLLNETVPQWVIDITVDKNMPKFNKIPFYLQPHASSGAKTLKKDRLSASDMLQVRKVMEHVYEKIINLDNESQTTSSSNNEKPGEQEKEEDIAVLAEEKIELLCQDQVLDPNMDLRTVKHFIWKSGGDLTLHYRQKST", "assay": "Biochemical analysis of USP1 enzyme activity (ubiquitin-rhodamine 110 deubiquitination, fluorescence)", "conditions": "ubiquitin-rhodamine 110 substrate, 10 minutes pre-incubation, 30 minutes reaction at room temperature; read-out: Enzyme activity IC50 grade", "protocol": "In this experimental example, the inhibitory effect of the compounds according to the present invention and the positive control compound on USP1 deubiquitinating activity was tested using a biochemical enzymatic assay. Ubiquitin-rhodamine 110 was used as a substrate for measuring deubiquitinating activity. This substrate compound is a substance in which rhodamine 110 is linked to the glycine residue at the C-terminus of ubiquitin by an amide bond. When this amide bond is cleaved by the deubiquitinating activity, a fluorescent signal is counted.\nSubsequently, analytical buffer solution (50 mM hydroxyethylpiperazineethanesulfonic acid (HEPES) containing USP1 enzyme, 100 mM NaCl, 2 mM tris(2-carboxyethyl)phosphine (TCEP), and 100 µg/mL bovine serum albumin (BSA)) were added to each well of the plate and incubated at room temperature for 10 minutes. Subsequently, analytical y buffer solution containing ubiquitin-rhodamine 110 was added to each well and reacted at room temperature for 30 minutes."}, "MCF-10A cell line": {"tested_on": "MCF-10A cell line", "assay": "BRCA1 synthetic lethality assay, colony formation with crystal violet staining, BRCA1/2 wild-type cells", "type": "cell-based", "protocol": "as §1"}},
  "data": [
    {"smiles": "COc1cccc(C2CC2)c1-c1ncc(P(C)(C)=O)c(NCc2ccc(-c3nc(C(F)(F)F)cn3C)cc2)n1", "note": "[Example 1, (2-(2-cyclopropyl-6-methoxyphenyl)-4-((4-(1-methyl-4-(trifluoromethyl)-1H-imidazol-2-yl)benzyl)amino)pyrimidin-5-yl)dimethylphosphine oxide]", "values": [
      {"measurement": "crystal violet extraction amount", "setting": "MDA-MB-436 cells; MDA-MB-436 cells with reduced BRCA1 activity, absorbance at 565 nm relative to DMSO blank, Fig. 1 A", "result": "less than one-fifth of that of the DMSO blank"},
      {"measurement": "colony formation", "setting": "MDA-MB-436 cells; MDA-MB-436 cells, compared with DMSO blank sample, Fig. 1 B", "result": "significantly reduced"},
      {"measurement": "IC50", "setting": "MDA-MB-436", "result": "100 to 500", "unit": "nM"},
      {"measurement": "IC50", "setting": "USP1 enzyme", "result": "50 to 100", "unit": "nM"},
      {"measurement": "crystal violet extraction amount", "setting": "MCF-10A cell line; MCF-10A cells with wild-type BRCA1/2, cultured for 21 days, absorbance at 565 nm relative to DMSO blank, Fig. 1 A", "result": "no different from that of the DMSO blank"},
      {"measurement": "colony formation", "setting": "MCF-10A cell line; MCF-10A cells, cultured for 21 days, compared with DMSO blank sample, Fig. 1 B", "result": "formed colonies at a normal level"}
    ]}
  ]
}
